Source: patent publication US11124479B2, “Oligopyrroles as antagonists of islet amyloid polypeptide oligomerization” (New York University, priority 2017, dated 2021)

Columns and labels:
Type in all cases: biochemical
[1] = target: T1, islet amyloid polypeptide (IAPP) (Homo sapiens, UniProt P10997); test: Seed-catalyzed ThT kinetic assay of IAPP aggregation; details: 15 μM IAPP; for relative t50 of seed catalyzed fibrillation: seed 5% v/v, lipid membrane DOPG:DOPC 3:7 750 μM; for factor of retardation of seed catalyzed aggregation kinetics: seed 10% v/v
T1 construct: IAPP is a 37 residue neuropancreatic hormone peptide; purchased Anaspec (Fremont, Calif.)
T1 sequence (P10997 34-70 limits assumed): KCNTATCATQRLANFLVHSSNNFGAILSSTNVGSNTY
Procedure: Seeds of IAPP were prepared by incubating 100 μM of IAPP in phosphate buffer at room temperature and aged for 24 hours. The formation of fibers was confirmed by TEM and ThT stain before storage at −20° C. until use. For the seed catalyzed aggregation kinetics of IAPP, 10% (based on the monomeric IAPP, v/v) seeds were added with ThT in phosphate buffer to the 96-well plate. The aggregation was initiated by the addition of fresh IAPP followed by gentle mixing. Kinetic assays in the presence of the compounds of the invention were conducted under the same conditions except that the compounds were added from a stock solution (1 mM or 10 mM in DMSO) to keep the final concentration of DMSO less than 1.0% (v/v).
The effect of ADH-101 on preformed IAPP oligomers has been investigated. ADH-101 was added during the lag phase of IAPP amyloid kinetics at 1 h and 3 h at an equimolar ratio (IAPP:ADH-101, 1:1, 10 μM IAPP). […] Additionally, ADH-101 has no effect on IAPP amyloid fibers. No change in ThT fluorescence intensity was observed when ADH-101 added to the fibers (FIG. 4, black arrow). […] The kinetics of IAPP fibrillation is dominated by the secondary nucleation which is reflected in the disappearance of the lag phase (FIG. 13). The t50 for the seed catalyzed (5%, v/v) aggregation kinetics of 15 μM IAPP (lipid membrane, DOPG:DOPC, 3:7, 750 μM) is 0.55±0.13 h which is […] faster than the de novo conditions (t50=1.55±0.20 h, FIGS. 13A and 13B). ADH-101 delays the seed catalyzed fibrillation by a relative t50 that is 1.8 fold and 2.6 fold at stoichiometric ratios of 1:1 and 2:1 (ADH-101:IAPP), respectively (FIGS. 13A and 13B). The t50 for the seed catalyzed (10%, v/v) aggregation of 15 μM IAPP is 0.86±0.19 h, which is ˜10 fold faster than the de novo conditions (t50=8.7±0.8 h, FIGS. 13C and 13D). ADH-101 retards the seed catalyzed aggregation kinetics of IAPP by factors of 1.4, 5.4, and 7.1 at stoichiometric ratios of 1:0.1, 1:0.5, and 1:1 (IAPP:ADH-101), respectively (FIGS. 13C and 13D). It is postulated that ADH-101 modulates IAPP conformation and attenuates its ability for oligomerization and fibrillation.

[2] = target: T1, islet amyloid polypeptide (IAPP); test: PICUP SDS-PAGE silver staining of IAPP oligomerization; details: 15 μM IAPP, equimolar ratio, up to 300 min
Procedure: The effect of ADH-101 on the oligomerization of IAPP was evaluated using performance photo-induced cross-linking of unmodified proteins (PICUP) SDS-PAGE-silver staining as described in Ono, K.; Condron, M. M.; Teplow, D. B. Proc. Natl. Acad. Sci. U.S.A. 2009, 106, 14745-14750 (FIG. 2E). IAPP was incubated in a buffer in the presence and absence of ADH-101 at an equimolar ratio, and the solutions were then treated with the cross-linking agent at various time intervals (FIG. 2E). IAPP forms oligomers of varying sizes as a function of time (FIG. 2E, Lane i-iv). […] Without wishing to be bound by any theory, it is postulated that ADH-101 forms a complex with monomeric IAPP and abolishes the oligomerization of IAPP.

[3] = target: T2, IAPP-induced lipid membrane leakage (Homo sapiens, UniProt P10997); test: Fluorescein-based liposome leakage assay
T2 construct: IAPP is a 37 residue neuropancreatic hormone peptide; purchased Anaspec (Fremont, Calif.)
T2 sequence (P10997 34-70 limits assumed): T1 sequence (P10997 34-70 limits assumed)
Source text: Colocalization of IAPP at the mitochondrial membrane and the subsequent membrane poration is considered to be one of the potential contributors to β-cell toxicity. Therefore, a liposome leakage assay could serve as a surrogate marker for IAPP induced cytotoxicity (see Last, N. B.; Miranker, A. D. Proc. Natl. Acad. Sci. U.S.A. 2013, 110, 6382-6387; and Last, N. B.; Rhoades, E.; Miranker, A. D. Proc. Natl. Acad. Sci. U.S.A. 2011, 108, 9460-9465). A previously reported fluorescein-based liposome leakage assay was employed to test the effect of ADH-101 on membrane associated α-helical intermediates of IAPP. Briefly, fluorescein-dextran conjugate (MW=70 kDa) was encapsulated in unilamaller extruded lipid vesicles (DOPG:DOPC, 3:7, d=100 nm). The size of fluorescein-dextran conjugate allows it to stay inside the lipid vesicles during IAPP mediated membrane poration. The leakage kinetics was probed by the quenching of fluorescence using a fluorescent quencher, DPX (p-xylene-bis-pyridinium […]). The kinetic profiles of leakage are single exponential with a decrease in fluorescence as a function of time. The leakage reaction was initiated by introducing 200 μM liposome into a solution of 4 μM IAPP and 6 mM of DPX. The introduction of the excess ionic concentration by DPX was counterbalanced by adjusting the buffer concentration. The kinetics of the leakage mediated by IAPP yielded a single exponential profile with a leakage rate of 7.3±1.1×10^−3 s^−1 (FIG. 5A).
The kinetics of liposome leakage induced by IAPP was monitored on QuantaMaster C-61 fluorescence spectrometer (Photon Technology International, Edison, N.J.) at 25° C. […] The stock solution of IAPP used in the measurements was kept in water at a concentration of 1 mM. The stock solution of water soluble quencher, DPX (p-xylene-bis-pyridinium bromide) was prepared in buffer (100 mM KCl, 50 mM NaPi, pH 7.4) at a concentration of 100 mM. The small molecules used in the leakage assay were dissolved in DMSO with a concentration range of 10-20 mM. The final concentration of dye encapsulating liposome, DPX, human IAPP, and small molecules were 200, 6000, 4, and 4 μM respectively. The final buffer concentration was corrected using higher concentration of buffer to keep the osmolality balanced. […] To determine the leakage rate constant, first the fluorescence was normalized and corrected by subtracting it from normalized fluorescence of control reaction. The corrected fluorescence was fit using equation given below (using Origin 9.1). All the experiments were performed in triplicate and the error values presented are standard deviations. a*exp(−b*x)+c (2) a=amplitude from 100% unleaked to 0% leaked c=final fraction of unleaked liposome y=change in fluorescence b=leakage rate constant

- relative t50 of seed catalyzed fibrillation ([1]; ratio 1:1 (ADH-101:IAPP)): 1.8 fold
- relative t50 of seed catalyzed fibrillation ([1]; ratio 2:1 (ADH-101:IAPP)): 2.6 fold
- factor of retardation of seed catalyzed aggregation kinetics ([1]; ratio 1:0.1 (IAPP:ADH-101)): 1.4
- factor of retardation of seed catalyzed aggregation kinetics ([1]; ratio 1:0.5 (IAPP:ADH-101)): 5.4
- factor of retardation of seed catalyzed aggregation kinetics ([1]; ratio 1:1 (IAPP:ADH-101)): 7.1
- leakage rate slower than the control reaction (IAPP only) ([3]; 4 μM IAPP, 4 μM compound, 200 μM liposome): ~3.5 times
- effect on the integrity of the liposomes ([3]; ADH-101 alone, 4 μM, no IAPP): did not have any effect
Structure (SMILES): CCOC(=O)c1cc(NC(=O)c2cc(NC(=O)c3cc([N+](=O)[O-])cn3CC(C)C)cn2CC(C)C)cn1CCC(=O)O [ADH-101]
- IAPP oligomerization (PICUP) [2]: completely inhibits the formation of large aggregates
